Laboratory results: US20060241149A1, “Chemical compounds” (priority 2002, published 2006)
Structures can show the parent of a compound that is named as a salt.

What was measured:
[1] = target: Raf kinase; assay: Raf kinase inhibition; type: biochemical
[2] = target: T1, TIE2 kinase (Homo sapiens, UniProt Q02763); assay: TIE2 kinase inhibition; type: biochemical
T1 construct: made in house; host or cells: baculovirus expression (insect cells)
Text: TIE-2 Enzyme Assay (TIE2-E)
The TIE-2 enzyme assay uses the LANCE method (Wallac) and GST-TIE2, baculovirus expressed recombinant constructs of the intracellular domains of human TIE2 (amino acids 762-1104, GenBank Accession #L06139) tagged by GST). The method measures the ability of the purified enzymes to catalyse the transfer of the γ-phosphate from ATP onto tyrosine residues in a biotinylated synthetic peptide, D1-15 (biotin-C6-LEARLVAYEGWVAGKKKamide). This peptide phosphorylation is detected using the following procedure: for enzyme preactivation, GST-TIE2 is incubated for 30 mins at room temperature with 2 mM ATP, 5 mM MgCl2 and 12.5 mM DTT in 22.5 MM HEPES buffer (pH7.4). Preactivated GST-TIE2 is incubated for 30mins at room temperature in 96 well plates with 1 uM D1-15 peptide, 80 uM ATP, 10 mM MgCl2, 0.1 mg/ml BSA and the test compound (diluted from a 10 mM stock in DMSO, final DMSO concentration is 2.4%) in 1 mM HEPES (pH7.4). The reaction is stopped by the addition of EDTA (final concentration 45 mM). Streptavidin linked-APC (allophycocyanin, Molecular Probe) and Europium-labeled anti-phosphorylated tyrosine antibody (Wallac) are then added at the final concentration of 17 ug/well and 2.1 ug/well, respectively. The APC signal is measured using an ARVO multilabel counter. (Wallac Berthold Japan). The percent inhibition of activity is calculated relative to blank control wells. The concentration of test compound that inhibits 50% of activity (IC50) is interpolated using nonlinear regression (Levernberg-Marquardt) and the equation, y=Vmax (1−x/(K+x))+Y2, where “K” is equal to the IC50. The IC50 values are converted to pIC50 values, i.e., -log IC50 in Molar concentration.
TIE-2 Enzyme Assay (TIE2-E2
The TIE-2 enzyme assay uses the LANCE method (Wallac) and GST-TIE2, baculovirus-expressed recombinant constructs of the intracellular domains of human TIE2 (amino acids 762-1104, GenBank Accession #L06139) tagged by GST). The method measures the ability of the purified enzymes to catalyse the transfer of the γ-phosphate from ATP onto tyrosine residues in a biotinylated synthetic peptide, D1-15 (biotin-C6-LEARLVAYEGWVAGKKKamide). This peptide phosphorylation is detected using the following procedure: for enzyme preactivation, GST-TIE2 is incubated for 2 hours at room temperature with 80 μM ATP, 10 mM MgCl2, 0.1 mg/ml BSA, 0.01% Tween 20 and 1 mM DTT in 100 mM HEPES buffer (pH7.4). […] The APC signal is measured using an Wallac Multilabel 1420 counter. […] The percent inhibition of activity is calculated relative to blank control wells. […]
Tie2 Fluorescence Polarization Kinase Activity Assay: (TIE2-FP) […]

T1 sequence (Q02763 762-1104): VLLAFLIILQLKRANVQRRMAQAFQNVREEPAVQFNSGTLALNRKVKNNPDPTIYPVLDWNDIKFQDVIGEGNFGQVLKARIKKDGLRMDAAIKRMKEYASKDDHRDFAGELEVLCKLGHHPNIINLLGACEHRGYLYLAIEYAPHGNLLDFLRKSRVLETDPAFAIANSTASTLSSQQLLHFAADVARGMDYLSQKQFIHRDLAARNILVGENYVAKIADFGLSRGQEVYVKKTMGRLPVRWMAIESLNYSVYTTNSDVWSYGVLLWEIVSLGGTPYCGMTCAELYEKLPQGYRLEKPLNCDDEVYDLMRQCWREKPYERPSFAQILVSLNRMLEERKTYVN

## CNC(=O)c1cc(Oc2ccc3c(c2)CCN3C(=O)Nc2ccc(Cl)c(C(F)(F)F)c2)ccn1 [Example 8, 5-(2-Methylcarbamoyl-pyridin-4-yloxy)-2,3-dihydro-indole-1-carboxylic acid(4′-chloro-3′-trifluoromethyl-phenyl)-amide]
[1]
  IC50: < 250 nM

## CNC(=O)c1cc(Oc2ccc3c(c2)CCN3C(=O)Nc2cc(C(F)(F)F)cc(C(F)(F)F)c2)ccn1 [Example 6, 5-(2-Methylcarbamoyl-pyridin-4-yloxy)-2,3-dihydro-indole-1-carboxylic acid(bis-3′,5′-trifluoromethylphenyl)-amide]
[2]
  IC50: < 250 nM

## CNC(=O)c1cc(Oc2ccc3c(c2)CCN3C(=O)Nc2cccc(C(F)(F)F)c2)ccn1 [Example 3, 5-(2-Methylcarbamoyl-pyridin-4-yloxy)-2,3-dihydro-indole-1-carboxylic acid(3′-trifluoromethyl-phenyl)-amide]
[2]
  IC50: < 250 nM

## CNC(=O)c1cc(Oc2ccc3c(c2)CCN3C(=O)Nc2ccc(F)c(C(F)(F)F)c2)ccn1 [Example 4, 5-(2-Methylcarbamoyl-pyridin-4-yloxy)-2,3-dihydro-indole-1-carboxylic acid(4′-fluoro-3′-trifluoromethyl-phenyl)-amide]
[2]
  IC50: < 250 nM

## CNC(=O)c1cc(Oc2ccc3c(c2)CCN3C(=O)Nc2cc(C(C)(C)C)on2)ccn1 [Example 7, 5-(2-Methylcarbamoyl-pyridin-4-yloxy)-2,3-dihydro-indole-1-carboxylic acid(5-tert-butyl-isoxazol-3-yl)-amide trifluoroacetate]
[2]
  IC50: < 250 nM
